T/C data for 25 compounds are collected here from PubChem BioAssay AID330 (DTP/NCI, 2004).

The test has as its system P388 leukemia ip, CD2F1 mice, survival T/C. Kind of test: NCI In Vivo Anticancer Drug Screen. Data for tumor model P388 Leukemia (intraperitoneal) in CD2F1 (CDF1) mice. The note with it: endpoint: median survival time, higher = longer survival. Summed up:
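Mice carrying the transplanted tumor received test compound or vehicle. Survival was recorded in each group, and the value is the treated-group measurement divided by that of the vehicle-treated control group.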

The mark [1] stands for this setting: dose: 50.0 mg/kg/injection, schedule: Q01DX005 (ip), vehicle: saline with Tween-80.
Where [2] appears, read: dose: 100.0 mg/kg/injection, schedule: Q04DX003 (ip), vehicle: saline with Tween-80.
Setting [3] is: dose: 200.0 mg/kg/injection, schedule: Q04DX003 (ip), vehicle: saline with Tween-80.
Setting [4] is: dose: 50.0 mg/kg/injection, schedule: Q01DX009 (ip), vehicle: Klucel (hydroxypropylcellulose) (HPC).
Setting [5] is: dose: 100.0 mg/kg/injection, schedule: Q01DX009 (ip), vehicle: Klucel (hydroxypropylcellulose) (HPC).
The mark [6] stands for this setting: dose: 200.0 mg/kg/injection, schedule: Q01DX009 (ip), vehicle: Klucel (hydroxypropylcellulose) (HPC).
The mark [7] stands for this setting: dose: 50.0 mg/kg/injection, schedule: Q01DX005 (ip), vehicle: Klucel (hydroxypropylcellulose) (HPC).
Where [8] appears, read: dose: 100.0 mg/kg/injection, schedule: Q01DX005 (ip), vehicle: Klucel (hydroxypropylcellulose) (HPC).
The mark [9] stands for this setting: dose: 200.0 mg/kg/injection, schedule: Q01DX005 (ip), vehicle: Klucel (hydroxypropylcellulose) (HPC).
Where [10] appears, read: dose: 60.0 mg/kg/injection, schedule: Q01DX005 (ip), vehicle: saline.
Where [11] appears, read: dose: 120.0 mg/kg/injection, schedule: Q01DX005 (ip), vehicle: saline.
Setting [12] is: dose: 240.0 mg/kg/injection, schedule: Q01DX005 (ip), vehicle: saline.
[13] abbreviates: dose: 120.0 mg/kg/injection, schedule: Q01DX005 (ip), vehicle: Klucel (hydroxypropylcellulose) (HPC).
Where [14] appears, read: dose: 240.0 mg/kg/injection, schedule: Q01DX005 (ip), vehicle: Klucel (hydroxypropylcellulose) (HPC).
Where [15] appears, read: dose: 12.5 mg/kg/injection, schedule: Q01DX009 (ip), vehicle: saline with Tween-80.
Where [16] appears, read: dose: 25.0 mg/kg/injection, schedule: Q01DX009 (ip), vehicle: saline with Tween-80.
[17] abbreviates: dose: 50.0 mg/kg/injection, schedule: Q01DX009 (ip), vehicle: saline with Tween-80.

Where “and” joins values, the source holds several entries; their conditions need not be identical. Equal entries are not always repeated. Inconclusive results and toxic doses are left out. Peptide text beside a SMILES is read from it.

Consider `CCOC(=O)CC(=O)c1sc(Nc2ccccc2)c(C#N)c1N`, for which the T/C is 98 % of control under setting [1]; 90 % of control (dose: 100.0 mg/kg/injection, schedule: Q01DX005 (ip), vehicle: saline with Tween-80); 90 % of control (dose: 200.0 mg/kg/injection, schedule: Q01DX005 (ip), vehicle: saline with Tween-80).

With `CCCCCCC(Cn1ccnc1)c1ccc(Br)cc1` (stereo not given), the T/C by setting is: under setting [2], 100 % of control; under setting [3], 91 % of control.

As to `CCCCC/C(=C/C=C/c1ccc(Cl)cc1)CN(C)C`, the T/C runs as follows: under setting [4], 111 % of control; under setting [5], 110 % of control.

Turning to `COc1cc(/C=C(\C)[N+](=O)[O-])cc(Br)c1O`, the T/C runs as follows: under setting [2], 100 % of control; under setting [3], 109 % of control; (dose: 400.0 mg/kg/injection, schedule: Q04DX003 (ip), vehicle: saline with Tween-80) 94 % of control.

In the case of `COP(=O)(OC)C1(C)CO1` (stereo not given), the T/C reads like this: under setting [4], 87 % of control; under setting [5], 91 % of control; under setting [6], 86 % of control.

For the compound `O=C(Nc1ccccc1)C1(c2ccccc2)CCCCC1`, the T/C reads like this: (dose: 25.0 mg/kg/injection, schedule: Q01DX005 (ip), vehicle: Klucel (hydroxypropylcellulose) (HPC)) 101 % of control; under setting [7], 99 % of control; under setting [8], 100 % of control; under setting [9], 93 % of control.

For `NC(CCS(=O)(=O)NO)C(=O)O` (stereo not given), the T/C by setting is: (dose: 12.5 mg/kg/injection, schedule: Q01DX009 (ip), vehicle: water) 89 % of control; (dose: 25.0 mg/kg/injection, schedule: Q01DX009 (ip), vehicle: water) 99 % of control; (dose: 50.0 mg/kg/injection, schedule: Q01DX009 (ip), vehicle: water) 90 % of control; (dose: 100.0 mg/kg/injection, schedule: Q01DX009 (ip), vehicle: water) 102 % of control; (dose: 200.0 mg/kg/injection, schedule: Q01DX009 (ip), vehicle: water) 99 % of control.

`COc1nc2c(=O)[nH]cnc2n1C1OC(CO)C(O)C1O` (stereo not given): the T/C under setting [10] was 104 % of control, the T/C under setting [11] is 97 % of control and the T/C under setting [12] was 98 % of control.

In the case of `COC(=O)c1ccc(C(=O)OC)c2nn3c(N)nnc3nc12`, the T/C was 110 % of control under setting [10], 100 % of control under setting [11] and 100 % of control under setting [12].

`CCc1cccc2c(NCCCCNc3c4ccccc4nc4c(CC)cccc34)c3ccccc3nc12`: the T/C by setting is: (dose: 0.62 mg/kg/injection, schedule: Q## X009 (ip), vehicle: lactic acid) 93 % of control; (dose: 1.25 mg/kg/injection, schedule: Q## X009 (ip), vehicle: lactic acid) 100 % of control; (dose: 2.5 mg/kg/injection, schedule: Q## X009 (ip), vehicle: lactic acid) 99 % of control; (dose: 5.0 mg/kg/injection, schedule: Q## X009 (ip), vehicle: lactic acid) 91 % of control.

With `CCOC(=O)C1=C(C)O/C(=C/c2ccccc2)C1=O`, the T/C runs as follows: under setting [4], 112 % of control; under setting [5], 102 % of control; under setting [6], 92 % of control.

For the compound `Nc1nc(N)nc(Nc2ccc(-c3cc4ccc(-c5ncc[nH]5)cc4[nH]3)cc2)n1`, the T/C is, setting by setting: (dose: 30.0 mg/kg/injection, schedule: Q01DX005 (ip), vehicle: Klucel (hydroxypropylcellulose) (HPC)) 153 % of control; under setting [13], 164 % of control and 171 % of control; under setting [14], 183 % of control and 188 % of control.

For the compound `COc1ccc(-c2c3ccc(=O)c(OC)cc3cn2C)cc1OC`, the T/C was 102 % of control under setting [7], 94 % of control under setting [8] and 94 % of control under setting [9].

Take `CCC(C)C(NC(=O)C(Cc1ccccc1)NC(=O)C(N)CSC)C(N)=O` (stereo not drawn) (H-Cys(Me)-Phe-Ile-NH2; configuration not given here): the T/C is 102 % of control under setting [7], 99 % of control under setting [8] and 99 % of control under setting [9].

Take `Cc1ccc(N=NN(C)C)cc1`: the T/C runs as follows: under setting [15], 110 % of control; (dose: 12.5 mg/kg/injection, schedule: Q04DX003 (ip), vehicle: saline with Tween-80) 104 % of control; under setting [16], 115 % of control; (dose: 25.0 mg/kg/injection, schedule: Q04DX003 (ip), vehicle: saline with Tween-80) 100 % of control; (dose: 33.0 mg/kg/injection, schedule: Q01DX009 (ip), vehicle: saline with Tween-80) 118 % of control; under setting [17], 122 % of control. The T/C (dose: 50.0 mg/kg/injection, schedule: Q04DX003 (ip), vehicle: saline with Tween-80) is 109 % of control.

In the case of `Cc1cccc(=O)[n-]1.Cc1cccc(=O)[n-]1.Cc1cccc(=O)[n-]1.Cc1cccc(=O)[n-]1.[Rh+2].[Rh+2]`, the T/C was 103 % of control (dose: 100.0 mg/kg/injection, schedule: Q04DX002 (ip), vehicle: Klucel (hydroxypropylcellulose) (HPC)); 102 % of control (dose: 200.0 mg/kg/injection, schedule: Q04DX002 (ip), vehicle: Klucel (hydroxypropylcellulose) (HPC)); 100 % of control (dose: 400.0 mg/kg/injection, schedule: Q04DX002 (ip), vehicle: Klucel (hydroxypropylcellulose) (HPC)).

As for `CC(C)[C@@H]1CC[C@@H](C)C[C@H]1N`, the T/C reads like this: (dose: 12.5 mg/kg/injection, schedule: Q01DX005 (ip), vehicle: saline) 107 % of control; (dose: 25.0 mg/kg/injection, schedule: Q01DX005 (ip), vehicle: saline) 98 % of control; under setting [1], 113 % of control; (dose: 50.0 mg/kg/injection, schedule: Q01DX005 (ip), vehicle: saline) 100 % of control.

Regarding `OC1C2CC3CC(C2)CC1(C#CC1(O)C2CC4CC(C2)CC1C4)C3` (stereo not given), the T/C runs as follows: (dose: 25.0 mg/kg/injection, schedule: Q01DX009 (ip), vehicle: Klucel (hydroxypropylcellulose) (HPC)) 100 % of control; under setting [4], 100 % of control; under setting [5], 93 % of control.

Consider `C[S+](CCSc1ccccc1)CCSc1ccccc1`, for which the T/C (dose: 7.5 mg/kg/injection, schedule: Q01DX009 (ip), vehicle: saline with Tween-80) was 90 % of control; the T/C (dose: 15.0 mg/kg/injection, schedule: Q01DX009 (ip), vehicle: saline with Tween-80) is 101 % of control; the T/C (dose: 30.0 mg/kg/injection, schedule: Q01DX009 (ip), vehicle: saline with Tween-80) was 99 % of control.

Regarding `COC(=O)c1noc2c1CSc1ccccc1-2`, the T/C (dose: 100.0 mg/kg/injection, schedule: Q04DX002 (ip), vehicle: saline with Tween-80) is 104 % of control and the T/C (dose: 200.0 mg/kg/injection, schedule: Q04DX002 (ip), vehicle: saline with Tween-80) is 99 % of control.

As to `CCCCC(CC)CSCN(CC)CC` (stereo not given), the T/C (dose: 50.0 mg/kg/injection, schedule: Q01DX009 (ip), vehicle: saline) is 100 % of control; the T/C (dose: 100.0 mg/kg/injection, schedule: Q01DX009 (ip), vehicle: saline) is 102 % of control; the T/C (dose: 200.0 mg/kg/injection, schedule: Q01DX009 (ip), vehicle: saline) was 112 % of control.

Regarding `Cc1cc2nc3ccc(=[N+](C)C)cc-3sc2cc1N`, the T/C runs as follows: (dose: 25.0 mg/kg/injection, schedule: Q04DX003 (ip), vehicle: saline) 100 % of control and 108 % of control; (dose: 50.0 mg/kg/injection, schedule: Q04DX003 (ip), vehicle: saline) 117 % of control and 91 % of control; (dose: 100.0 mg/kg/injection, schedule: Q04DX003 (ip), vehicle: saline) 109 % of control and 123 % of control.

As to `C[N+]1(C)N=C([O-])N(c2ccccc2C(F)(F)F)C1=O`, the T/C was 99 % of control under setting [15], 99 % of control under setting [16] and 106 % of control under setting [17].

As for `CC(C)(O)C1COC2=C1C(=O)c1ccccc1C2=O` (stereo not given), the T/C reads like this: (dose: 50.0 mg/kg/injection, schedule: Q01DX009 (ip), vehicle: other) 94 % of control; (dose: 100.0 mg/kg/injection, schedule: Q01DX009 (ip), vehicle: other) 107 % of control.

In the case of `COc1ccc(N=Cc2c(O)ccc3c2oc2cc(Cl)c(O)c(Cl)c23)cc1`, the T/C by setting is: (dose: 60.0 mg/kg/injection, schedule: Q01DX005 (ip), vehicle: Klucel (hydroxypropylcellulose) (HPC)) 96 % of control; under setting [13], 93 % of control; under setting [14], 91 % of control.
